Patent US20110081298A1, “RATIOMETRIC BIOLUMINESCENT SENSOR FOR IMAGINING OXIDATIVE STRESS” (priority 2009, published 2011)
Residues, ends and D or L forms follow the SMILES beside them. *: point of attachment. Cbz = O=C(OCc1ccccc1)*; CH2F = FC*

Legend:
Format in all cases: cell-based, human
HeLa-fR cells [1] = assay: RLuc8/fLuc bioluminescence and RLuc8:fLuc ratio in HeLa-fR cells (Dual-Glo); conditions: for RLuc8:fLuc ratio of STS-treated cells with inhibitor/scavenger: inhibitor 1 hour before 10 μM STS for 24 hours, working concentrations of Table 7; for RLuc8:fLuc bioluminescent ratio: HeLa-fR cells treated with the stress/cell death inducer alone
Method: To induce cellular stress, HeLa cells were treated with Staurosporine (STS), hydrogen peroxide, or hypoxanthine and xanthine oxidase for 0 to 24 hours at concentrations indicated in Table 7. Stressed and unstressed cells were also incubated with inhibitors that target various intracellular protein degradation/modification pathways. The specific compounds/proteins that were utilized as inhibitors and the respective final working concentrations are also listed in Table 7. Inhibitors were added to cells 1-hr prior to adding inducers of cellular stress and left in the media for the duration of the treatment. Analogous controls were conducted in the absence of stress inducers.
To induce caspase dependent PCD, cells were treated with staurosporine (STS), Doxorubicin (DOX), or camptothecin (CPT) (Sigma, St. Louis, Mo.) in complete medium at indicated concentrations and time points. To induce caspase-independent PCD, cells were treated with sodium selenite (SSe, MP Biomedicals, Solon, Ohio) or resveratrol (Res, Enzo Life Sciences, Plymouth Meeting, Pa.) in complete medium at indicated concentrations and time points. In studies where allopurinol (Allo, MP Biomedicals) is used as an inhibitor, it was added at a final concentration of 100 μM to cells in complete medium for 1 hour prior to the addition of the death-inducing drugs and remained in the medium throughout the study.
Unless otherwise noted, bioluminescence assays were performed 24 hours after plating 10,000 HeLa-fR cells/well in a white-walled 96 well tissue culture plate (BD Biosciences, Franklin Lakes, N.J., USA).

intracellular H2O2 = assay: Intracellular H2O2 by CM-H2DCFDA, HeLa-fR cells; conditions: STS-treated HeLa-fR cells
Method: Catalase and Allopurinol: HeLa-fR cells were plated at a density of 120,000 cells per well of a 12 well tissue culture plate (BD Biosciences). 24 hours later, the cells were incubated with 10 μM CM-H2DCFDA (Invitrogen) for 30 minutes at 37° C. Cells were then treated with PBS (pH 7.4), 50 U/mL catalase or 100 μM allopurinol for one hour. PBS (pH 7.4) or 10 μM STS was subsequently added to the cells, and all compounds remained on the cells for 24 hours. Intracellular H2O2 levels were determined by subjecting the cells to flow cytometry using a Guava EasyCyte (Guava Technologies). Analysis of flow cytometry data was accomplished using FlowJo software (Treestar).

HeLa-fR cells [2] = assay: Western blot of fLuc and RLuc8 protein, HeLa-fR cells; conditions: STS-treated cells pretreated with the inhibitor/scavenger
Method: Following indicated culture conditions, HeLa-fR cells were washed 3 times with 1×PBS (pH7.4). Proteins were extracted using RIPA extraction buffer (50 mM Tris HCL, pH 7.4, 1% Triton X-100, 0.25% Na-deoxycholate, 150 mM NaCl, 1 mM EDTA and a Complete Mini Protease Inhibitor Cocktail Tablet (Roche)) at 4° C. for 30 minutes with constant agitation. Total protein concentrations were measured using a BCA assay (Pierce, Rockford, Ill., USA). […] Proteins separated by electrophoresis were transferred to nitrocellulose membranes in 1× Transfer Buffer (Bio-Rad) at 15V for 30 minutes. Membranes were blocked in Blocking Buffer for Fluorescent Western Blotting (Rockland Immunochemicals, Gilbertsville, Pa., USA) for 60 minutes. The membranes were incubated with anti-fLuc (Sigma), anti-rLuc (Millipore, Billerica, Mass.) or anti-β-actin (Abcam, Cambridge, Mass.) primary antibodies in blocking buffer overnight. […] The fluorescent signal from the membranes was imaged using the Odyssey Infrared Imaging System (Li-Cor Biosciences, Lincoln, Nebr., USA).

caspases 3 and 7 = assay: Caspase-Glo 3/7 assay, HeLa-fR cells
Method: Caspase Activity: PCD was induced (as described above) 24 hours after plating 10,000 cells/well in white-walled 96 well tissue culture plates (BD Biosciences). After indicated treatment times, the Caspase 3/7-Glo Assay (Promega) was performed according to the manufacturer's protocol and bioluminescence measurements were obtained from and Infinite 200 plate reader (Tecan). All values were normalized to controls (i.e. pre-treatment values).

Structure (SMILES)	RLuc8:fLuc ratio of STS-treated cells with inhibitor/scavenger (HeLa-fR cells [1])	other results
COC(=O)C[C@H](NC(=O)[C@H](C)NC(=O)[C@@H](NC(=O)OCc1ccccc1)C(C)C)C(=O)CF [z-vad-fmk] (Cbz-Val-Ala-Asp(OMe)-CH2F)	none of these inhibitors significantly affected	–
CC1(C)CC(O)CC(C)(C)N1[O] [TEMPOL]	none of the superoxide scavengers significantly reduced	–
CC(C)C[C@@H](C=O)NC(=O)[C@H](CC(C)C)NC(=O)[C@H](CC(C)C)NC(=O)OCc1ccccc1 [MG-132] (Cbz-Leu-Leu-Leu-aldehyde)	increase in the RLuc8:fLuc ratio	–
CC[C@H](C)[C@H](NC(=O)[C@H]([C@@H](C)CC)N(C)C(C)=O)C(=O)N[C@H](C(=O)N[C@@H](CC(C)C)C(=O)[C@@]1(C)CO1)[C@@H](C)O [epoxomicin]	increase in the RLuc8:fLuc ratio	–
Cl.N [ammonium chloride]	none of these inhibitors significantly affected	–
CC(=O)Oc1ccccc1C(=O)O [aspirin, acetylsalicylic acid]	significant reduction (p<0.01)	intracellular H2O2 (CM-H2DCFDA fluorescence) with inhibitor/scavenger (intracellular H2O2): decrease in CM-H2DCFDA fluorescence; fLuc protein level vs STS without inhibitor (HeLa-fR cells [2]): higher levels of fLuc protein; RLuc8:fLuc ratio, increasing doses of inhibitor/scavenger (HeLa-fR cells [1]; pretreated 1 hour prior to 10 μM STS, 24 hr): reducing the Rluc8:fLuc ratio, in a dose-dependent manner
CC(C)[C@H](NC(=O)OCc1ccccc1)C(=O)N[C@H](C=O)Cc1ccccc1 [Calpain Inhibitor III] (Cbz-Val-Phe-aldehyde)	none of these inhibitors significantly affected	RLuc8:fLuc ratio, inhibitor on untreated (−STS) cells (HeLa-fR cells [1]; HeLa-fR, no STS): increase in the Rluc8:fLuc ratio
COc1cccc2c1C(=O)c1c(O)c3c(c(O)c1C2=O)C[C@@](O)(C(=O)CO)C[C@@H]3O[C@H]1C[C@H](N)[C@H](O)[C@H](C)O1 [doxorubicin, Doxorubicin]	–	caspase activity / caspase dependence of cell death (caspases 3 and 7): caspase-dependent; RLuc8:fLuc bioluminescent ratio (HeLa-fR cells [1]): dose- and time-dependent increase
CC[C@@]1(O)C(=O)OCc2c1cc1n(c2=O)Cc2cc3ccccc3nc2-1 [camptothecin]	–	caspase activity / caspase dependence of cell death (caspases 3 and 7): caspase-dependent; RLuc8:fLuc bioluminescent ratio (HeLa-fR cells [1]): dose- and time-dependent increase
OC[C@@H](O)[C@@H](O)[C@H](O)[C@H](O)CO [mannitol]	did not reduce the Rluc8:fLuc ratio	–
